According to US20210094954A1, “PREPARATION METHODS AND APPLICATIONS OF 3,5-DISUBSTITUTED METHYLPYRAZOLO[1,5-A]PYRIMIDINE-7-HYDROXYLIC SALTS” (priority 2019, published 2021):
Read-outs that look alike come from different tables or passages of the source.

Experiments:
Type in all cases: cell-based
[1] = tested on: F2518(VRE), Staphylococcus aureus resistant strain 43300(MRSA), 703 (MRSA), pneumococcal resistance bacteria 6303(PRSP); assay: microbe, parasite or virus in culture; details: read-out: MIC values (μM)
Bacillus cereus 2 = assay: microbe, parasite or virus in culture; details: 37° C., 24 hours; for MIC: Bacillus cereus, 2, read-out: MIC values of in vitro antibacterial test results
[2] = tested on: Streptococcus agalactia B group; assay: microbe, parasite or virus in culture; details: 37° C., 24 hours; for MIC: Streptococcus, read-out: MIC values of in vitro antibacterial test results
[3] = tested on: Streptococcus pneumoniae 6303 (PRSP); assay: microbe, parasite or virus in culture; details: for MIC: Streptococcus pneumoniae, PRSP, 24 h, read-out: MIC values of in vitro antibacterial test results
Bacillus subtilis 168 = assay: microbe, parasite or virus in culture; details: 37° C., 24 hours; for MIC: Bacillus subtilis, 168, read-out: MIC values of in vitro antibacterial test results
[4] = tested on: Bacillus anthracis Bacillus 1; assay: microbe, parasite or virus in culture; details: for MIC: Bacillus anthracis, 24 h, read-out: MIC values of in vitro antibacterial test results
Clostridium perfringens = assay: microbe, parasite or virus in culture; details: for MIC: Clostridium perfringens, 24 h, read-out: MIC values of in vitro antibacterial test results
Diphtheria bacilli = assay: organism not typed; details: 37° C., 24 hours; for MIC: read-out: MIC values of in vitro antibacterial test results
[5] = tested on: Staphylococcus aureus 703(MRSA); assay: microbe, parasite or virus in culture; details: for MIC: Staphylococcus aureus, MRSA
[6] = tested on: Streptococcus pneumoniae M2; assay: microbe, parasite or virus in culture; details: 37° C., 24 hours; for MIC: Streptococcus pneumoniae, M2, read-out: MIC values of in vitro antibacterial test results
[7] = tested on: Enterococcus faecalis 29212; assay: microbe, parasite or virus in culture; details: 37° C., 24 hours; for MIC: Enterococcus faecalis, 29212, read-out: MIC values of in vitro antibacterial test results
[8] = tested on: Staphylococcus aureus 29231; assay: microbe, parasite or virus in culture; details: 37° C., 24 hours; for MIC: Staphylococcus aureus, 29231, read-out: MIC values of in vitro antibacterial test results
[9] = tested on: Enterococcus faecalis F2518(VRE); assay: microbe, parasite or virus in culture; details: for MIC: Enterococcus faecalis, VRE, 24 h, read-out: MIC values of in vitro antibacterial test results
[10] = tested on: Staphylococcus aureus 43300(MRSA); assay: microbe, parasite or virus in culture; details: for MIC: Staphylococcus aureus, MRSA
Oral Candida = assay: microbe, parasite or virus in culture; details: for MIC: Candida
Peel fungus = assay: organism not typed; details: 37° C., 24 hours; for MIC: read-out: MIC values of in vitro antibacterial test results
[11] = tested on: Streptococcus pneumoniae 10351; assay: microbe, parasite or virus in culture; details: 37° C., 24 hours; for MIC: Streptococcus pneumoniae, 10351, read-out: MIC values of in vitro antibacterial test results
[12] = 24 h, read-out: MIC values of in vitro antibacterial test results
[13] = 37° C., 24 hours, read-out: MIC values of in vitro antibacterial test results

SMILES	MIC [1]	MIC (Bacillus cereus 2)	MIC [2]	MIC [3]	MIC (Bacillus subtilis 168)	MIC [4]	MIC (Clostridium perfringens)	MIC (Diphtheria bacilli)	MIC [5, 12]	MIC [6]	MIC [7]	MIC [8]	MIC [9]	MIC [10, 12]	MIC (Oral Candida; [13])	MIC (Peel fungus)	MIC [11]	other results
Cc1nn2c([O-])cc(-c3ccc(C(F)(F)F)cc3)nc2c1-c1ccc(F)cc1F.[Na+] [Compound 1, sodium 3-(2,4-difluorophenyl)-2-methyl-5-(4-(trifluoromethyl)-phenyl)pyrazolo[1,5-α]pyrimidin-7-olate]	< 100 µg/mL	< 100 µg/mL	< 150 µg/mL	< 100 µg/mL	< 100 µg/mL	> 150 µg/mL	> 150 µg/mL	> 150 µg/mL	< 150 µg/mL	< 100 µg/mL	< 100 µg/mL	< 100 µg/mL	< 150 µg/mL	< 100 µg/mL	< 100 µg/mL	> 150 µg/mL	< 100 µg/mL	MIC (Oral Candida; read-out: MIC values (μM)): < 100 µg/mL
Cc1nn2c([O-])cc(-c3ccc(C#N)cc3)nc2c1-c1ccc(F)cc1F.[Na+] [Compound 2, Sodium 5-(4-cyanophenyl)-3-(2,4-difluorophenyl)-2-methylpyrazolo[1,5-α]pyrimidin-7-olate]	< 100 µg/mL	< 100 µg/mL	< 150 µg/mL	< 150 µg/mL	< 150 µg/mL	> 150 µg/mL	> 150 µg/mL	> 150 µg/mL	< 50 µg/mL	< 150 µg/mL	< 100 µg/mL	< 100 µg/mL	< 150 µg/mL	< 50 µg/mL	< 150 µg/mL	< 150 µg/mL	< 100 µg/mL	MIC ([5]; read-out: MIC values (μM)): < 50 µg/mL; MIC ([10]; read-out: MIC values (μM)): < 50 µg/mL
COc1ccc(-c2cc([O-])n3nc(C)c(-c4ccc(F)cc4F)c3n2)cc1.[Na+] [Compound 4, Sodium 3-(2,4-difluorophenyl)-5-(4-methoxyphenyl)-2-methylpyrazolo[1,5-α]pyrimidin-7-olate]	< 100 µg/mL	< 150 µg/mL	> 150 µg/mL	> 150 µg/mL	> 150 µg/mL	> 150 µg/mL	> 150 µg/mL	> 150 µg/mL	< 150 µg/mL	< 150 µg/mL	< 150 µg/mL	> 150 µg/mL	< 150 µg/mL	< 100 µg/mL	< 150 µg/mL	< 150 µg/mL	> 150 µg/mL	–
Cc1nn2c([O-])cc(-c3ccc([O-])cc3)nc2c1-c1ccc(F)cc1F.[Na+].[Na+] [Compound 6]	< 100 µg/mL	< 100 µg/mL	< 150 µg/mL	< 150 µg/mL	< 100 µg/mL	> 150 µg/mL	> 150 µg/mL	> 150 µg/mL	< 100 µg/mL	< 150 µg/mL	< 100 µg/mL	< 100 µg/mL	< 150 µg/mL	< 100 µg/mL	< 100 µg/mL	< 150 µg/mL	< 100 µg/mL	MIC (Oral Candida; read-out: MIC values (μM)): < 100 µg/mL
Cc1nn2c([O-])cc(-c3ccc(C(=O)[O-])cc3)nc2c1-c1ccc(F)cc1F.[Na+].[Na+] [Compound 7, Disodium 4-(3-(2,4-difluorophenyl)-2-methyl-7-hydroxy-pyrazolo[1,5-α]pyrimidin-5-yl)benzoate]	< 100 µg/mL	< 150 µg/mL	> 150 µg/mL	> 150 µg/mL	> 150 µg/mL	> 150 µg/mL	> 150 µg/mL	> 150 µg/mL	< 150 µg/mL	< 100 µg/mL	< 150 µg/mL	> 150 µg/mL	< 150 µg/mL	< 100 µg/mL	> 150 µg/mL	< 150 µg/mL	> 150 µg/mL	–
Cc1nn2c([O-])cc(-c3ccc(S(=O)[O-])cc3)nc2c1-c1ccc(F)cc1F.[Na+].[Na+] [Compound 8]	–	< 150 µg/mL	> 150 µg/mL	> 150 µg/mL	> 150 µg/mL	> 150 µg/mL	> 150 µg/mL	> 150 µg/mL	< 150 µg/mL	< 150 µg/mL	< 150 µg/mL	> 150 µg/mL	< 150 µg/mL	< 150 µg/mL	< 150 µg/mL	< 150 µg/mL	> 150 µg/mL	–
Cc1nn2c([O-])cc(-c3ccc(C(N)=O)cc3)nc2c1-c1ccc(F)cc1F.[Na+] [Compound 11, Sodium 5-(4-carbamoylphenyl)-3-(2,4-difluorophenyl)-2-methylpyrazolo[1,5-α]pyrimidin-7-olate]	< 100 µg/mL	< 150 µg/mL	> 150 µg/mL	> 150 µg/mL	> 150 µg/mL	> 150 µg/mL	> 150 µg/mL	> 150 µg/mL	< 150 µg/mL	< 100 µg/mL	< 150 µg/mL	> 150 µg/mL	< 150 µg/mL	< 100 µg/mL	< 150 µg/mL	< 150 µg/mL	> 150 µg/mL	–
Cc1nn2c([O-])cc(-c3ccc([S](=O)(=O)[Na])nc3)nc2c1-c1ccc(F)cc1F.[Na+] [Compound 28, Disodium 5-(3-(2,4-difluorophenyl)-2-methyl-7-hydroxypyrazolo[1,5-α]pyrimidin-5-yl)pyridine-2-sulfinate]	–	–	–	–	–	–	–	–	–	–	–	–	–	–	–	–	–	MIC values of in vitro antibacterial test results (Bacillus cereus 2): ++ (key: − represents the MIC value (μM) > 150 μg/mL; + represents the MIC value (μM) < 150 μg/mL; ++ represents the MIC value (μM) < 100 μg/mL; +++ represents the MIC value (μM) < 50 μg/mL); MIC values of in vitro antibacterial test results [2]: − (key: − represents the MIC value (μM) > 150 μg/mL; + represents the MIC value (μM) < 150 μg/mL; ++ represents the MIC value (μM) < 100 μg/mL; +++ represents the MIC value (μM) < 50 μg/mL); MIC values of in vitro antibacterial test results ([3]; 37° C., 24 hours): − (key: − represents the MIC value (μM) > 150 μg/mL; + represents the MIC value (μM) < 150 μg/mL; ++ represents the MIC value (μM) < 100 μg/mL; +++ represents the MIC value (μM) < 50 μg/mL); MIC values of in vitro antibacterial test results (Bacillus subtilis 168): − (key: − represents the MIC value (μM) > 150 μg/mL; + represents the MIC value (μM) < 150 μg/mL; ++ represents the MIC value (μM) < 100 μg/mL; +++ represents the MIC value (μM) < 50 μg/mL); MIC values of in vitro antibacterial test results ([4]; 37° C., 24 hours): − (key: − represents the MIC value (μM) > 150 μg/mL; + represents the MIC value (μM) < 150 μg/mL; ++ represents the MIC value (μM) < 100 μg/mL; +++ represents the MIC value (μM) < 50 μg/mL); MIC values of in vitro antibacterial test results (Clostridium perfringens; 37° C., 24 hours): − (key: − represents the MIC value (μM) > 150 μg/mL; + represents the MIC value (μM) < 150 μg/mL; ++ represents the MIC value (μM) < 100 μg/mL; +++ represents the MIC value (μM) < 50 μg/mL); MIC values of in vitro antibacterial test results (Diphtheria bacilli): − (key: − represents the MIC value (μM) > 150 μg/mL; + represents the MIC value (μM) < 150 μg/mL; ++ represents the MIC value (μM) < 100 μg/mL; +++ represents the MIC value (μM) < 50 μg/mL); MIC values of in vitro antibacterial test results ([5]; 37° C., 24 hours): + (key: − represents the MIC value (μM) > 150 μg/mL; + represents the MIC value (μM) < 150 μg/mL; ++ represents the MIC value (μM) < 100 μg/mL; +++ represents the MIC value (μM) < 50 μg/mL); MIC values of in vitro antibacterial test results [6]: ++ (key: − represents the MIC value (μM) > 150 μg/mL; + represents the MIC value (μM) < 150 μg/mL; ++ represents the MIC value (μM) < 100 μg/mL; +++ represents the MIC value (μM) < 50 μg/mL); MIC values of in vitro antibacterial test results [7]: + (key: − represents the MIC value (μM) > 150 μg/mL; + represents the MIC value (μM) < 150 μg/mL; ++ represents the MIC value (μM) < 100 μg/mL; +++ represents the MIC value (μM) < 50 μg/mL); MIC values of in vitro antibacterial test results [8]: − (key: − represents the MIC value (μM) > 150 μg/mL; + represents the MIC value (μM) < 150 μg/mL; ++ represents the MIC value (μM) < 100 μg/mL; +++ represents the MIC value (μM) < 50 μg/mL); MIC values of in vitro antibacterial test results ([9]; 37° C., 24 hours): + (key: − represents the MIC value (μM) > 150 μg/mL; + represents the MIC value (μM) < 150 μg/mL; ++ represents the MIC value (μM) < 100 μg/mL; +++ represents the MIC value (μM) < 50 μg/mL); MIC values of in vitro antibacterial test results ([10]; 37° C., 24 hours): + (key: − represents the MIC value (μM) > 150 μg/mL; + represents the MIC value (μM) < 150 μg/mL; ++ represents the MIC value (μM) < 100 μg/mL; +++ represents the MIC value (μM) < 50 μg/mL); MIC values of in vitro antibacterial test results (Oral Candida; 37° C., 24 hours): ++ (key: − represents the MIC value (μM) > 150 μg/mL; + represents the MIC value (μM) < 150 μg/mL; ++ represents the MIC value (μM) < 100 μg/mL; +++ represents the MIC value (μM) < 50 μg/mL); MIC values of in vitro antibacterial test results (Peel fungus): + (key: − represents the MIC value (μM) > 150 μg/mL; + represents the MIC value (μM) < 150 μg/mL; ++ represents the MIC value (μM) < 100 μg/mL; +++ represents the MIC value (μM) < 50 μg/mL); MIC values of in vitro antibacterial test results [11]: − (key: − represents the MIC value (μM) > 150 μg/mL; + represents the MIC value (μM) < 150 μg/mL; ++ represents the MIC value (μM) < 100 μg/mL; +++ represents the MIC value (μM) < 50 μg/mL)
